Assay [1] concerns spindle assembly checkpoint. Kind of assay: SAC-Formation - Nocodazole-Induced Assay. Type of assay: cell-based. Particulars: Homo sapiens; HeLa cells, nocodazole 0.1 μg/ml, 24 h, phosphorylated histone H3 on serine 10. In short, it runs like this: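 HeLa cells were given nocodazole at 0.1 μg/ml final together with compounds (0.005–20 μM, 0.5% DMSO) for 24 h at 37° C. Mitotic cells were counted by phospho-histone H3 Ser10 immunostaining, with cell number from HOECHST 33342, by high-content imaging. The loss of mitotic cells was fitted with a four-parameter Hill equation.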

Assay [2] concerns HeLa. Kind of assay: Proliferation assay (crystal violet), HeLa. Type of assay: cell-based. Particulars: Homo sapiens, 96 h, 4 days, read-out: Inhibition of proliferation IC50 HeLa. The essentials: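 Tumour cells seeded at 1000–5000 cells/well in medium with 10% FCS, dosed after 24 h at 0.001–10 μM (0.5% DMSO final) for 4 days. Cell number read by crystal-violet staining after glutaraldehyde fixation (A595), normalised to zero-point plate (0%) and untreated cells (100%); IC50 from 4-parameter fit.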

Here are results for eleven compounds from patent US9682995B2, “Amino-substituted isothiazoles” (BAYER PHARMA AKTIENGESELLSCHAFT, priority 2013, dated 2017).

pIC50: −log10 of the molar value.

Consider `COc1ccc(NC(=O)c2c(C)nsc2Nc2cnc(C(F)(F)F)cn2)cn1` [Example 85, N-(6-methoxypyridin-3-yl)-3-methyl-5-{[5-(trifluoromethyl)pyrazin-2-yl]amino}-1,2-thiazole-4-carboxamide], for which the pIC50 was 8.21 in assay [1] and 6.00 in assay [2].

As for `CCc1ccccc1NC(=O)c1c(C)nsc1Nc1cnc2cc(Cl)ccc2n1` [Example 86, 5-[(6-Chloroquinoxalin-2-yl)amino]-N-(2-ethylphenyl)-3-methyl-1,2-thiazole-4-carboxamide], the pIC50 is 6.28 in assay [1] and 6.00 in assay [2].

With `COc1ccc2nc(Nc3snc(C)c3C(=O)Nc3ccc(OC)nc3)sc2c1` [Example 87, 5-[(6-Methoxy-1,3-benzothiazol-2-yl)amino]-N-(6-methoxypyridin-3-yl)-3-methyl-1,2-thiazole-4-carboxamide], the pIC50 in assay [1] is 6.23; in assay [2], 5.55.

Regarding `COc1ccc(NC(=O)c2c(C)nsc2Nc2nc3ccc(F)cc3s2)cn1` [Example 88, 5-[(6-Fluoro-1,3-benzothiazol-2-yl)amino]-N-(6-methoxypyridin-3-yl)-3-methyl-1,2-thiazole-4-carboxamide], the pIC50 in assay [1] is 6.09; in assay [2], 5.68.

`COc1ccc(NC(=O)c2c(C)nsc2Nc2nc3cccnc3s2)cn1` [Example 89, N-(6-Methoxypyridin-3-yl)-3-methyl-5-([1,3]thiazolo[5,4-b]pyridin-2-ylamino)-1,2-thiazole-4-carboxamide]: the pIC50 is 5.85 in assay [1] and 5.44 in assay [2].

For the compound `COc1ccc(NC(=O)c2c(C)nsc2Nc2nc3ccc(C)cc3s2)cn1` [Example 90, N-(6-Methoxypyridin-3-yl)-3-methyl-5-[(6-methyl-1,3-benzothiazol-2-yl)amino]-1,2-thiazole-4-carboxamide], the pIC50 in assay [1] was 5.38; in assay [2], 5.00.

Consider `CCc1ccccc1NC(=O)c1c(C)nsc1Nc1nc(C(=O)OC)co1` [Example 91, Methyl 2-({4-[(2-ethylphenyl)carbamoyl]-3-methyl-1,2-thiazol-5-yl}amino)-1,3-oxazole-4-carboxylate], for which the pIC50 in assay [1] was 5.38; in assay [2], 5.01.

`CCOC(=O)c1cnc(Nc2snc(C)c2C(=O)Nc2ccccc2CC)s1` [Example 92, Ethyl 2-({4-[(2-ethylphenyl)-carbamoyl]-3-methyl-1,2-thiazol-5-yl}amino)-1,3-thiazole-5-carboxylate]: the figures for the pIC50 in assay [1] and in assay [2] were 5.92 and 5.00, respectively.

Take `COc1ccc(NC(=O)c2c(C)nsc2Nc2ncc(C(=O)N3CCOCC3)s2)cc1F` [Example 93, N-(3-Fluoro-4-methoxyphenyl)-3-methyl-5-{[5-(morpholin-4-ylcarbonyl)-1,3-thiazol-2-yl]amino}-1,2-thiazole-4-carboxamide]: the pIC50 in assay [1] is 5.85; in assay [2], 5.00.

Consider `COc1ccc(NC(=O)c2c(C)nsc2Nc2cnc3ccccc3n2)cn1` [Example 94, N-(6-Methoxypyridin-3-yl)-3-methyl-5-(quinoxalin-2-ylamino)-1,2-thiazole-4-carboxamide], for which the pIC50 in assay [1] was 7.09; in assay [2] it was 5.00.

As to `CCOC(=O)c1sc(Nc2snc(C)c2C(=O)Nc2ccc(Cl)c(F)c2)nc1C` [Example 95, Ethyl 2-({4-[(4-chloro-3-fluoro-phenyl)carbamoyl]-3-methyl-1,2-thiazol-5-yl}amino)-4-methyl-1,3-thiazole-5-carboxylate], the pIC50 is 6.59 in assay [1] and 5.92 in assay [2].
